Experimental data reported in paper PMC11509018, “Evaluation of the Role of Tanshinone I in an In Vitro System of Charcot-Marie-Tooth Disease Type 2N” (International Journal of Molecular Sciences, 2024).
Substitutions are numbered along the chain they refer to.

Columns and labels:
[1] = biological target: T1, AlaRS^N71Y (Homo sapiens, UniProt P49588, N71Y); experiment: Biolayer interferometry (BLI); assay type: binding; details: immobilized AlaRS^N71Y, mean ± SD, triplicate
T1 construct: made in house; host or cells: E. coli BL21 (DE3), pET-21a
T1 sequence (P49588 1-968 N71Y): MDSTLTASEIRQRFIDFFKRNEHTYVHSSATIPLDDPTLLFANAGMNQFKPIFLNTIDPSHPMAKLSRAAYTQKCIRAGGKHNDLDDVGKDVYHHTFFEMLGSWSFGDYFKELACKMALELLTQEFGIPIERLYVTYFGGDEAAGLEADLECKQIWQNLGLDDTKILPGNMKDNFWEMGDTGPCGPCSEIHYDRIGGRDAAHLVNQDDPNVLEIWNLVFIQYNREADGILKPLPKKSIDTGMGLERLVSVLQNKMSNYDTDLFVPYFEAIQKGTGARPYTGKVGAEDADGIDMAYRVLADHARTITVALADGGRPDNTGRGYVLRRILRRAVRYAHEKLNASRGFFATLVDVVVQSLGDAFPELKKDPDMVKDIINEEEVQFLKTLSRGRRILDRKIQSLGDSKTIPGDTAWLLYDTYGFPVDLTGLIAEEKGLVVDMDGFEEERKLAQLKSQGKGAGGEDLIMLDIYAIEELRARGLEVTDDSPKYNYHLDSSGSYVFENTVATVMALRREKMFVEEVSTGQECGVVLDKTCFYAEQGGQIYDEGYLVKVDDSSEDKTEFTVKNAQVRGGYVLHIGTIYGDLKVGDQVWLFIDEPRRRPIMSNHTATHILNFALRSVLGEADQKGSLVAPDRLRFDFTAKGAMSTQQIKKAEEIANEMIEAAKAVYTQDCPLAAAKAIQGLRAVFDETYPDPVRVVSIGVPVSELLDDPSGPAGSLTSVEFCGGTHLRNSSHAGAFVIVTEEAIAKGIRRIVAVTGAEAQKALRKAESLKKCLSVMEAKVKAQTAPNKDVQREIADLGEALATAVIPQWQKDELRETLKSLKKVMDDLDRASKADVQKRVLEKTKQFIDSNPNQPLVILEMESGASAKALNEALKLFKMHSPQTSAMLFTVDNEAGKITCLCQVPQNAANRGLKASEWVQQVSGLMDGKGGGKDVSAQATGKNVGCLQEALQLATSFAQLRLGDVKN
Description: (§1) Furthermore, we examined the interaction of Tanshinone I with additional AlaRS CMT mutants capable of binding to Nrp1 and causing conformational changes by BLI and proteolysis assays on additional related mutants. […] To further quantify the binding of small molecules to mutant proteins, binding experiments with AlaRS^R329H proteins and small molecules were conducted using an Octet R8 system (ForteBio, Fremont, CA, USA). Purified His-tagged AlaRS^R329H proteins (500 μg/mL) were captured on Ni-NTA biosensors (ForteBio, Fremont, CA, USA), achieving a saturation response of 4–5 nm after 300 s. The biosensors were then transferred to Octet buffer (PBS with 0.01% Tween 20) for 180 s to remove loosely bound, nonspecific proteins and to establish a stable baseline. Following this, the sensors were immersed in diluted Tanshinone I (2.5–100 μM in assay buffer) for 120 s to record the association signal, and then transferred back into Octet buffer to monitor the dissociation signal for 120 s. Reference wells containing buffer instead of Tanshinone I were included to correct for baseline shifts. Additionally, a parallel set of Ni-NTA sensors in buffer served as negative reference controls to account for nonspecific binding of the compounds to the biosensor surface. The data were processed using a double reference subtraction protocol to eliminate nonspecific signals, background noise, and signal drifts caused by biosensor variability. All assays were performed in 96-well black plates with a total volume of 200 μL per well at 30 °C. Data analysis, including correction and curve fitting, was carried out using Octet® Analysis Studio 12.2.2.26. The experiment was repeated three times.

[2] = biological target: T2, AlaRS^E337K (Homo sapiens, UniProt P49588, E337K); experiment: Biolayer interferometry (BLI); assay type: binding; details: immobilized AlaRS^E337K, mean ± SD, triplicate
T2 construct: made in house; host or cells: E. coli BL21 (DE3), pET-21a
T2 sequence (P49588 1-968 E337K): T1 sequence (P49588 1-968 N71Y) with Y71N, E337K
Description: as §1

Kd [1]: 37.8 ± 6.2 µM | Kd [2]: 19.2 ± 4.2 µM
Compound: Cc1coc2c1C(=O)C(=O)c1c-2ccc2c(C)cccc12 [Tanshinone I]
